Assay results as given in US10058550B2, “Methods of treating heart failure” (priority 2015, dated 2018).

Target: human APJ receptor (Homo sapiens (Human), UniProt P35414)
Assay: biochemical
Type: biochemical
Conditions: read-out: Activity hAPJ SPA EC50 IP
How it was run: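 Agonist-stimulated [35S]GTPγS (0.2 nM) binding was read by SPA after 90 min at room temperature. Buffer: 20 mM HEPES pH 7.5 with 5 mM MgCl2, 200 mM NaCl, 3 μM GDP, 0.1% BSA; membranes were from a stable human APJ CHO line. EC50 values are averages of independent runs, fitted by non-linear regression.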

Chain of human APJ receptor (P35414 whole entry): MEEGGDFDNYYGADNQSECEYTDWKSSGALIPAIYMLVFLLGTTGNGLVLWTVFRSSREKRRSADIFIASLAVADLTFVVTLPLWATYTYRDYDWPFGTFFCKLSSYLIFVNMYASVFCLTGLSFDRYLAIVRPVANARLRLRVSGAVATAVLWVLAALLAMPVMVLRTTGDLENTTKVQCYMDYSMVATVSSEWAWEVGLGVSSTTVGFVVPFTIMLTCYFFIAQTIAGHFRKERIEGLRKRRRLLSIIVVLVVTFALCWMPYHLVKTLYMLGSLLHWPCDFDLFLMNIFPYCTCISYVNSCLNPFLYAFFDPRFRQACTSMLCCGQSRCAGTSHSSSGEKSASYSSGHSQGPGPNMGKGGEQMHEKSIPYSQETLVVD

Compound | EC50 [nM]
CNc1cccc(-c2nnc(NS(=O)(=O)[C@@H](C)[C@H](OC)c3ncc(C)cn3)n2-c2c(OC)cccc2OC)n1 [Example 195.0, (1R,2S)-N-(4-(2,6-dimethoxyphenyl)-5-(6-(methylamino)pyridin-2-yl)-4H-1,2,4-triazol-3-yl)-1-methoxy-1-(5-methylpyrimidin-2-yl)propane-2-sulfonamide] | 0.35
COCCOc1cccc(-c2nnc(NS(=O)(=O)[C@@H](C)[C@H](OC)c3ncc(C)cn3)n2-c2c(OC)cccc2OC)n1 [Example 196.0, (1R,2S)-N-(4-(2,6-dimethoxyphenyl)-5-(6-(2-methoxyethoxy)pyridin-2-yl)-4H-1,2,4-triazol-3-yl)-1-methoxy-1-(5-methylpyrimidin-2-yl)propane-2-sulfonamide] | 3.4
COc1cccc(OC)c1-n1c(NS(=O)(=O)[C@@H](C)[C@H](OC)c2ncc(C)cn2)nnc1-c1cccc(N(C)C)n1 [Example 197.0, (1R,2S)-N-(4-(2,6-dimethoxyphenyl)-5-(6-(dimethylamino)pyridin-2-yl)-4H-1,2,4-triazol-3-yl)-1-methoxy-1-(5-methylpyrimidin-2-yl)propane-2-sulfonamide] | 0.21
COc1cccc(OC)c1-n1c(NS(=O)(=O)[C@@H](C)[C@H](C)c2cnc(C)cn2)nnc1-c1cccnc1 [Example 198.0, (2S,3R)-N-(4-(2,6-dimethoxyphenyl)-5-(pyridin-3-yl)-4H-1,2,4-triazol-3-yl)-3-(5-methylpyrazin-2-yl)butane-2-sulfonamide] | 1.1
COc1cccc(-c2nnc(NS(=O)(=O)CCc3ccc(F)cc3C#N)n2-c2c(OC)cccc2OC)n1 [Example 200.0, 2-(2-cyano-4-fluorophenyl)-N-(4-(2,6-dimethoxyphenyl)-5-(6-methoxy-2-pyridinyl)-4H-1,2,4-triazol-3-yl)ethanesulfonamide] | 0.57
COc1cccc(OC)c1-n1c(NS(=O)(=O)CCN2C(=O)N(C)CC[C@@H]2C)nnc1-c1cncc(C)c1 [Example 201.0, N-(4-(2,6-dimethoxyphenyl)-5-(5-methyl-3-pyridinyl)-4H-1,2,4-triazol-3-yl)-2-((6S)-3,6-dimethyl-2-oxotetrahydro-1(2H)-pyrimidinyl)ethanesulfonamide] | 2.5
COc1cccc(-c2nnc(NS(=O)(=O)CCc3ccc(F)cc3C#N)n2-c2c(OC)ncnc2OC)n1 [Example 204.0, 2-(2-cyano-4-fluorophenyl)-N-(4-(4,6-dimethoxy-5-pyrimidinyl)-5-(6-methoxy-2-pyridinyl)-4H-1,2,4-triazol-3-yl)ethanesulfonamide] | 1.5
CCNC(=O)c1cccc(-c2nnc(NS(=O)(=O)[C@@H](C)Cc3ncc(F)cn3)n2-c2c(OC)cccc2OC)n1 [Example 229.0, 6-(4-(2,6-dimethoxyphenyl)-5-((((1S)-2-(5-fluoro-2-pyrimidinyl)-1-methylethyl)sulfonyl)amino)-4H-1,2,4-triazol-3-yl)-N-ethyl-2-pyridinecarboxamide, 6-(4-(2,6-dimethoxyphenyl)-5-((((1R)-2-(5-fluoro-2-pyrimidinyl)-1-methylethyl)sulfonyl)amino)-4H-1,2,4-triazol-3-yl)-N-ethyl-2-pyridinecarboxamide] | 6.3
COc1cccc(OC)c1-n1c(NS(=O)(=O)[C@@H](C)[C@H](OC)c2ncccn2)nnc1-c1cncc(C)c1 [Example 250.0, (1R,2S)-N-(4-(2,6-dimethoxyphenyl)-5-(5-methyl-3-pyridinyl)-4H-1,2,4-triazol-3-yl)-1-methoxy-1-(2-pyrimidinyl)-2-propanesulfonamide] | 2.8
COc1cccc(-c2nnc(NS(=O)(=O)[C@@H](C)[C@H](C)c3ncc(C)cn3)n2-c2c(OC)cccc2OC)n1 [Example 313.0, (2S,3R)—N-(4-(2,6-dimethoxyphenyl)-5-(6-methoxy-2-pyridinyl)-4H-1,2,4-triazol-3-yl)-3-(5-methyl-2-pyrimidinyl)-2-butanesulfonamide] | 0.3
COc1cccc(-c2nnc(NS(=O)(=O)[C@H](C)[C@@H](C)c3ncc(C)cn3)n2-c2c(OC)cccc2OC)n1 [Example 314.0, (2R,3S)—N-(4-(2,6-dimethoxyphenyl)-5-(6-methoxy-2-pyridinyl)-4H-1,2,4-triazol-3-yl)-3-(5-methyl-2-pyrimidinyl)-2-butanesulfonamide] | 3.4
COc1cccc(OC)c1-n1c(NS(=O)(=O)CCc2ccc(Cl)cc2)nnc1-c1ccccn1 [Example 368.0, 2-(4-chlorophenyl)-N-(4-(2,6-dimethoxyphenyl)-5-(2-pyridinyl)-4H-1,2,4-triazol-3-yl)ethanesulfonamide] | 59
COc1cccc(OC)c1-n1c(NS(=O)(=O)CCc2ccc(Cl)cc2)nnc1-c1cccnc1 [Example 369.0, 2-(4-chlorophenyl)-N-(4-(2,6-dimethoxyphenyl)-5-(3-pyridinyl)-4H-1,2,4-triazol-3-yl)ethanesulfonamide] | 16
COc1cccc(OC)c1-n1c(NS(=O)(=O)N[C@@H](C)c2ncc(F)cn2)nnc1-c1cncc(C)c1 [Example 392.0] | 48
CCO[C@H](c1ncc(Cl)cn1)[C@H](C)S(=O)(=O)Nc1nnc(-c2cncc(C)c2)n1-c1c(OC)cccc1OC [Example 429.0, (1R,2S)-1-(5-chloropyrimidin-2-yl)-N-(4-(2,6-dimethoxyphenyl)-5-(5-methylpyridin-3-yl)-4H-1,2,4-triazol-3-yl)-1-ethoxypropane-2-sulfonamide] | 0.27
COc1cccc(OC)c1-n1c(NS(=O)(=O)[C@@H](C)[C@H](C)c2ncc(F)cn2)nnc1-c1cccc(C)n1 [Example 453.0, (2S,3R)—N-(4-(2,6-dimethoxyphenyl)-5-(6-methyl-2-pyridinyl)-4H-1,2,4-triazol-3-yl)-3-(5-fluoro-2-pyrimidinyl)-2-butanesulfonamide] | 0.6
COc1cccc(OC)c1-n1c(NS(=O)(=O)[C@@H](C)[C@H](C)c2ncc(F)cn2)nnc1-c1cccc(Cl)n1 [Example 454.0, (2S,3R)—N-(5-(6-chloro-2-pyridinyl)-4-(2,6-dimethoxyphenyl)-4H-1,2,4-triazol-3-yl)-3-(5-fluoro-2-pyrimidinyl)-2-butanesulfonamide] | 0.84
COc1cccc(OC)c1-n1c(NS(=O)(=O)[C@@H](C)[C@H](C)c2ncc(F)cn2)nnc1-c1cccc(-c2ccccc2)n1 [Example 455.0, (2S,3R)—N-(4-(2,6-dimethoxyphenyl)-5-(6-phenyl-2-pyridinyl)-4H-1,2,4-triazol-3-yl)-3-(5-fluoro-2-pyrimidinyl)-2-butanesulfonamide] | 4.9
COc1cccc(OC)c1-n1c(NS(=O)(=O)CCN2C(=O)N(C)CC[C@H]2C)nnc1-c1cncc(C)c1 [Example 460.0, N-(4-(2,6-dimethoxyphenyl)-5-(5-methyl-3-pyridinyl)-4H-1,2,4-triazol-3-yl)-2-((6R)-3,6-dimethyl-2-oxotetrahydro-1(2H)-pyrimidinyl)ethanesulfonamide] | 9.7
COc1cccc(OC)c1-n1c(NS(=O)(=O)CCc2ccc(F)cc2C#N)nnc1-c1cccc(=O)[nH]1 [Example 461.0, 2-(2-cyano-4-fluorophenyl)-N-(4-(2,6-dimethoxyphenyl)-5-(6-oxo-1,6-dihydro-2-pyridinyl)-4H-1,2,4-triazol-3-yl)ethanesulfonamide] | 670
